The values below come from US20240352020A1, “PYRAZOLE-CONTAINING CBP/CATENIN ANTAGONISTS AND USES THEREOF” (3+2 PHARMA, LLC, priority 2021, published 2024).

Structures are written as SMILES.

One data set concerns CBP/β-Catenin. Description: SuperTOPFLASH cell-based luciferase assay (Wnt-driven Luciferase Activity in Stably Transfected Cell Line, Hek293, STF1.1). As to the method: SuperTOPFLASH Cell-based Luciferase Assay. Hek-293, STF1.1 cells are maintained in DMEM, 10% FBS, Pen-Strep supplemented with 200 μg/mL G418. On the day prior to assay, cells are split into a white, opaque 96-well plate at 10,000 cells per well in 50 μL of complete medium without G418 (for screening of Wnt-signaling inhibitors, G418 can be left out during screening process). After allowing the cells to stabilize and attach overnight, 40 μL of complete medium (without G418) containing 2.5× final concentration of compound or DMSO control is added to the cells and allowed to incubate for 1 hour at 37° C., 5% CO2 prior to adding 10 μL of a 100 mM LiCl solution prepared in complete medium (without G418). After 24 hours, 100 μL of BrightGlo (Promega, Cat. #: G7573) is added to each well and the plate is shaken for 5 minutes prior to reading on the Perkin-Elmer EnVision Plate Reader. For example, on the day prior to assay: cells are split into a white opaque 96-well plate at 10,000 cells per well in 50 μL of complete growth medium; the plate is incubated overnight at 37° C., 5% CO2 and the cells allowed to attach; the next day inhibitors to be tested are prepared in complete growth medium at 2.5× the desired final concentration (all conditions are done in duplicates), and 40 μL of the medium containing the 2.5× concentration of compound is added to each well (include 2 wells for stimulation control, 2 wells for DMSO control, and wells for the positive control ICG-001 (e.g., 2, 5, and 10 micromolar)); once all inhibitors and controls are added, incubate the plate for 1 hour at 37° C., 5% CO2 (while plate is incubating, prepare fresh 100 mM LiCl in complete growth medium); after 1 hour, the plate is removed from the incubator and 10 μL of the medium containing 100 mM LiCl are added to each well (except for the two wells of the unstimulated control, to which […] of just complete medium is added); the plate is incubated for 24 hours at 37° C., 5% CO2; after 24 hours, 100 microliters of BrightGlo (Promega, Cat. #: G7573) is added to each well, the plate is shaken for 5 minutes to ensure complete lysis, and the plate is then read on a Perkin-Elmer EnVision 96-well plate reader.

The conditions of data set [1]: intravenous, patients with HCV cirrhosis, cited from earlier work.
For data set [2], the system named is T memory stem cells (SCM) and central memory T-cells (CM). The conditions noted are these: ART-suppressed SIVmac251-infected RMs; cited from earlier work.
[3] abbreviates: FIG. 1, compounds 0.078 μM to 10 μM, ICG-001 positive control at 0.62-20 μM.
[4] abbreviates: FIG. 2, compounds 0.625 μM to 5 μM, ICG-001 positive control at 2.5, 5 and 10 μM.
[5] abbreviates: 10 and 40 mg/m^2/day for 12 weeks.

For the compound `O=C1[C@H](Cc2ccc(O)cc2)N2C(=O)CN(Cc3cnn(-c4ccccc4)c3)N(C(=O)NCc3ccccc3)[C@H]2CN1Cc1cccc2ncccc12` [Compound 1, (6S,9aS)—N-benzyl-6-(4-hydroxybenzyl)-4,7-dioxo-2-((1-phenyl-1H-pyrazol-4-yl)methyl)-8-(quinolin-5-ylmethyl)octahydro-1H-pyrazino[2,1-c][1,2,4]triazine-1-carboxamide], the “CBP/β-Catenin inhibition activity: potency compared with ICG-001” value in the data set on CBP/β-Catenin (setting [3]) is reported as “greater potency than that of ICG-001”. Also, the “CBP/β-Catenin inhibition activity: potency compared between compounds 1 and 2” value in the data set with CBP/β-Catenin (FIG. 1, concentrations between 0.078 μM and 10 μM) is listed as “greater potency than that of compound 2”.
Regarding `O=C1[C@H](Cc2ccc(O)cc2)N2C(=O)CN(Cc3cnn(-c4ccccc4)c3Br)N(C(=O)NCc3ccccc3)[C@H]2CN1Cc1cccc2ncccc12` [Compound 2, (6S,9aS)—N-benzyl-2-((5-bromo-1-phenyl-1H-pyrazol-4-yl)methyl)-6-(4-hydroxybenzyl)-4,7-dioxo-8-(quinolin-5-ylmethyl)octahydro-1H-pyrazino[2,1-c][1,2,4]triazine-1-carboxamide], the “CBP/β-Catenin inhibition activity: potency compared with ICG-001” value in the data set with CBP/β-Catenin (setting [3]) is “greater potency than that of ICG-001”.
As to `O=C1[C@H](Cc2ccc(O)cc2)N2C(=O)CN(Cc3ccn(-c4ccccc4)n3)N(C(=O)NCc3ccccc3)[C@H]2CN1Cc1cccc2cccnc12` [Compound 3, (6S,9aS)—N-benzyl-6-(4-hydroxybenzyl)-4,7-dioxo-2-((1-phenyl-1H-pyrazol-3-yl)methyl)-8-(quinolin-8-ylmethyl)octahydro-1H-pyrazino[2,1-c][1,2,4]triazine-1-carboxamide], in the data set with CBP/β-Catenin (setting [4]), the “CBP/β-Catenin inhibition activity: potency compared with ICG-001” value is on record as “greater potency than that of ICG-001”.
`O=C1[C@H](Cc2ccc(O)cc2)N2C(=O)CN(Cc3cnn(-c4ccccc4)c3)N(C(=O)NCc3ccccc3)[C@H]2CN1Cc1cccc2cccnc12` [Compound 4, (6S,9aS)—N-benzyl-6-(4-hydroxybenzyl)-4,7-dioxo-2-((1-phenyl-1H-pyrazol-4-yl)methyl)-8-(quinolin-8-ylmethyl)octahydro-1H-pyrazino[2,1-c][1,2,4]triazine-1-carboxamide]: the “CBP/β-Catenin inhibition activity: potency compared with ICG-001” value in the data set on CBP/β-Catenin (setting [4]) is listed as “greater potency than that of ICG-001”. The “CBP/β-Catenin inhibition activity: potency compared between compounds 3 and 4” value with CBP/β-Catenin (FIG. 2, concentrations between 0.625 μM and 5 μM) is reported as “greater potency than that of compound 3”.
`C[C@H]1[C@H]2N(C(=O)CN(C)N2C(=O)NCc2ccccc2)[C@@H](Cc2ccc(OP(=O)(O)O)cc2)C(=O)N1Cc1cccc2cccnc12` [PRI-724]: in data set [1] (10 and 40 mg/m^2/day for 12 weeks (1 week on and 1 week off)), the Safety entry is listed as “appeared to be safe”. Besides, in data set [1] (setting [5]), the “Liver histology and Child Pugh scores” value was “improvement in liver histology and Child Pugh scores in several patients”; the “Plasma exposure of the drug” value was “dose-dependent plasma exposure”. In addition, the “Proliferation of T memory stem cells (SCM) and central memory (CM) T-cells” value in data set [2] is reported as “decrease proliferation”.
